Laboratory results as given in patent US10160755B2 (Plexxikon Inc., priority 2015, dated 2018).

Legend:
FLT3-D835Y = target: T1, FLT3-D835Y (Homo sapiens, UniProt P36888, D835Y); assay: FLT3-D835Y biochemical kinase assay (AlphaScreen)
T1 construct: purchased Invitrogen PV3967
T1 sequence (P36888 27-993 D835Y): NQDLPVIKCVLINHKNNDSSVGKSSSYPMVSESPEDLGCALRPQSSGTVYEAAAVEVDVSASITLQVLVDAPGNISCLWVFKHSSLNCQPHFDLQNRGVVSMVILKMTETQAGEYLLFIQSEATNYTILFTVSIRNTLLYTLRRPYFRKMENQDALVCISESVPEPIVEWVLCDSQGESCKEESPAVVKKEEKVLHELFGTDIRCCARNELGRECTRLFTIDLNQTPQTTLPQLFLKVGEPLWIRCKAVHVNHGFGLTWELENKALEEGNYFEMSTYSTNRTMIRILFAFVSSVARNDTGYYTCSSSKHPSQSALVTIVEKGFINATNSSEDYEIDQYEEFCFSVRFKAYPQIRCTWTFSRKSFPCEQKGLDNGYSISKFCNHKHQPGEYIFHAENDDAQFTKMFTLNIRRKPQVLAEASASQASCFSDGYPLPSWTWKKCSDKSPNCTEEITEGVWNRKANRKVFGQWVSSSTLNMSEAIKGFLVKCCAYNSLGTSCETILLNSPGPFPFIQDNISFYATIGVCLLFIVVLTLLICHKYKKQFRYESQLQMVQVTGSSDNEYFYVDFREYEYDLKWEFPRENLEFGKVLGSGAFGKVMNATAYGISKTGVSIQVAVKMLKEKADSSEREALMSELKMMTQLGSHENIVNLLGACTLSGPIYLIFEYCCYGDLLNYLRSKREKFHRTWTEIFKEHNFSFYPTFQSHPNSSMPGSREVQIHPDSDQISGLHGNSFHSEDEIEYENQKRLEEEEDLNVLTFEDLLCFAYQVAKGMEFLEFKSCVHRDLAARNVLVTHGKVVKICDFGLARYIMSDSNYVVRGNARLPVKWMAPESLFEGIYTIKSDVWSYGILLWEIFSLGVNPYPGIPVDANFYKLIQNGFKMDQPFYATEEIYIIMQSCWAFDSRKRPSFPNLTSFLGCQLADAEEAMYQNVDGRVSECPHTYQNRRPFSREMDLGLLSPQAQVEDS
Summary of the method: (§1)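 Recombinant enzyme phosphorylated biotin-poly(Glu4-Tyr) peptide (30 nM final); ATP final 10 μM for FLT3-D835Y, 100 μM for FLT3-ITD. AlphaScreen read-out: streptavidin donor and anti-phosphotyrosine (PY20) acceptor beads, 20 and 60 min at room temperature; inhibition seen as drop in 580 nm proximity signal; IC50 determined.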

FLT3-ITD = target: T2, FLT3-ITD (Homo sapiens, UniProt P36888); assay: FLT3-ITD biochemical kinase assay (AlphaScreen)
T2 construct: FLT3-ITD; Invitrogen #PV6190
T2 sequence (P36888 1-993): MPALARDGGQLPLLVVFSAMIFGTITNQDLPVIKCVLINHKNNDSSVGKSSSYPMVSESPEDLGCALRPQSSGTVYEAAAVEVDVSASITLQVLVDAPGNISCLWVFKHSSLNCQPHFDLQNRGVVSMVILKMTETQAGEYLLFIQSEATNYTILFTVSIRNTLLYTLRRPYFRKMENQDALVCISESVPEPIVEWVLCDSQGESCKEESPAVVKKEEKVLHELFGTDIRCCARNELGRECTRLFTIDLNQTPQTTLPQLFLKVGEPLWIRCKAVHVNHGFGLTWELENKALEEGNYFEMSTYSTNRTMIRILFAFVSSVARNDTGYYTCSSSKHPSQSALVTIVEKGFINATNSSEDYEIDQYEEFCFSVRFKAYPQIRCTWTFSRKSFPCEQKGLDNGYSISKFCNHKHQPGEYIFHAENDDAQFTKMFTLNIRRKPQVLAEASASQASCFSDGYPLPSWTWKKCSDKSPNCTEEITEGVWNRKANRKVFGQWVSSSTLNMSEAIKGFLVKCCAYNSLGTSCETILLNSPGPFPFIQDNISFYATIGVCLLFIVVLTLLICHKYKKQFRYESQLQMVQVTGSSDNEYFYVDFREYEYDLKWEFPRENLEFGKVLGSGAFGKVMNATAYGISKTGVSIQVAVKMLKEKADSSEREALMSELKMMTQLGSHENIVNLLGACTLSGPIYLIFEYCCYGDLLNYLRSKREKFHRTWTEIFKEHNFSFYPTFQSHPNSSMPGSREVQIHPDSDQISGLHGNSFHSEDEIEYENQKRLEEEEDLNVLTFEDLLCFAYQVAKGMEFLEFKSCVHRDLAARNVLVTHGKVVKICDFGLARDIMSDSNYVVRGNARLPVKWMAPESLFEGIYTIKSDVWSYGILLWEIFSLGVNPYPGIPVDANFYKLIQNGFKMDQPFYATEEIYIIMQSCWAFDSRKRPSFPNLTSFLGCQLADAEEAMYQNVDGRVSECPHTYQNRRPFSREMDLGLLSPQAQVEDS
Summary of the method: as §1

IC50 (FLT3-D835Y) | IC50 (FLT3-ITD) | Structure (SMILES)
0.0001 to 1 µM | 0.0001 to 1 µM | Cn1cnc2ccc(-c3c[nH]c4ncc(-c5ccc(F)c(C#N)c5)cc34)cc21 [P-141, 2-fluoro-5-[3-(3-methylbenzimidazol-5-yl)-1H-pyrrolo[2,3-b]pyridin-5-yl]benzonitrile]
0.0001 to 1 µM | 0.0001 to 1 µM | COc1cccc(-c2cnc3[nH]cc(-c4ccc5ncsc5c4)c3n2)c1 [P-158, 6-[2-(3-methoxyphenyl)-5H-pyrrolo[2,3-b]pyrazin-7-yl]-1,3-benzothiazole]
0.0001 to 1 µM | 0.0001 to 1 µM | CC(C)(C)n1cnc2ccc(-c3c[nH]c4ncc(-c5ccc(F)nc5)nc34)cc21 [P-360, 7-(3-tert-butylbenzimidazol-5-yl)-2-(6-fluoro-3-pyridyl)-5H-pyrrolo[2,3-b]pyrazine]
0.0001 to 1 µM | 0.0001 to 1 µM | COc1cnc2[nH]cc(-c3ccc4ncn(Cc5ccc(Cl)cc5)c4c3)c2c1 [P-111, 1-[(4-chlorophenyl)methyl]-6-(5-methoxy-1H-pyrrolo[2,3-b]pyridin-3-yl)benzimidazole]
0.0001 to 1 µM | 0.0001 to 1 µM | CN(C)c1ncc(-c2cnc3[nH]cc(-c4ccc5ncn(C(C)(C)C)c5c4)c3n2)cn1 [P-378, 5-[7-(3-tert-butylbenzimidazol-5-yl)-5H-pyrrolo[2,3-b]pyrazin-2-yl]-N,N-dimethyl-pyrimidin-2-amine]
0.0001 to 1 µM | 0.0001 to 1 µM | CC(C)(C)n1cnc2ccc(-c3c[nH]c4ncc(-c5cccc(C#N)c5)cc34)cc21 [P-199, 3-[3-(3-tert-butylbenzimidazol-5-yl)-1H-pyrrolo[2,3-b]pyridin-5-yl]benzonitrile]
0.0001 to 1 µM | 0.0001 to 1 µM | N#Cc1cccc(-c2cnc3[nH]cc(-c4ccc5ncsc5c4)c3n2)c1 [P-181, 3-[7-(1,3-benzothiazol-6-yl)-5H-pyrrolo[2,3-b]pyrazin-2-yl]benzonitrile]
0.0001 to 1 µM | 0.0001 to 1 µM | Fc1ccc(-n2cnc3ccc(-c4c[nH]c5ncc(-c6cccc(OC(F)(F)F)c6)cc45)cc32)cc1 [P-204, 1-(4-fluorophenyl)-6-[5-[3-(trifluoromethoxy)phenyl]-1H-pyrrolo[2,3-b]pyridin-3-yl]benzimidazole]
0.0001 to 1 µM | 0.0001 to 1 µM | FC(F)(F)Cn1cc(-c2cnc3[nH]cc(-c4ccc5ncsc5c4)c3n2)cn1 [P-166, 6-[2-[1-(2,2,2-trifluoroethyl)pyrazol-4-yl]-5H-pyrrolo[2,3-b]pyrazin-7-yl]-1,3-benzothiazole]
0.0001 to 1 µM | 0.0001 to 1 µM | Cn1cnc2ccc(-c3c[nH]c4ncc(-c5cccc(CC(=O)O)c5)cc34)cc21 [P-185, 2-[3-[3-(3-methylbenzimidazol-5-yl)-1H-pyrrolo[2,3-b]pyridin-5-yl]phenyl]acetic acid]
0.0001 to 1 µM | 0.0001 to 1 µM | N#Cc1cccc(-c2cnc3[nH]cc(-c4ccc5ncn(-c6ccc(F)cc6)c5c4)c3c2)c1 [P-201, 3-[3-[3-(4-fluorophenyl)benzimidazol-5-yl]-1H-pyrrolo[2,3-b]pyridin-5-yl]benzonitrile]
0.0001 to 1 µM | 0.0001 to 1 µM | CCCS(=O)(=O)Nc1cccc(-c2cnc3[nH]cc(-c4ccc5ncn(C)c5c4)c3n2)c1 [P-155, N-[3-[7-(3-methylbenzimidazol-5-yl)-5H-pyrrolo[2,3-b]pyrazin-2-yl]phenyl]propane-1-sulfonamide]
0.0001 to 1 µM | 0.0001 to 1 µM | O=C(NC1CC1)c1cccc(-c2cnc3[nH]cc(-c4ccc5ncsc5c4)c3n2)c1 [P-162, 3-[7-(1,3-benzothiazol-6-yl)-5H-pyrrolo[2,3-b]pyrazin-2-yl]-N-cyclopropyl-benzamide]

Second part, the compound before the results:

Structure (SMILES) | IC50 (FLT3-D835Y) | IC50 (FLT3-ITD)
CCCS(=O)(=O)Nc1cccc(-c2cnc3[nH]cc(-c4ccc5ncsc5c4)c3n2)c1 [P-168, N-[3-[7-(1,3-benzothiazol-6-yl)-5H-pyrrolo[2,3-b]pyrazin-2-yl]phenyl]propane-1-sulfonamide] | 0.0001 to 1 µM | 0.0001 to 1 µM
Fc1ccc(-n2cnc3ccc(-c4c[nH]c5ncc(-c6cccc(OC(F)(F)F)c6)nc45)cc32)cc1 [P-192, 7-[3-(4-fluorophenyl)benzimidazol-5-yl]-2-[3-(trifluoromethoxy)phenyl]-5H-pyrrolo[2,3-b]pyrazine] | 0.0001 to 1 µM | 0.0001 to 1 µM
COc1cc(-c2cnc3[nH]cc(-c4ccc5ncn(C(C)(C)C)c5c4)c3n2)cc(OC)n1 [P-194, 7-(3-tert-butylbenzimidazol-5-yl)-2-(2,6-dimethoxy-4-pyridyl)-5H-pyrrolo[2,3-b]pyrazine] | 0.0001 to 1 µM | 0.0001 to 1 µM
CN1CCN(c2ncc(-c3cnc4[nH]cc(-c5ccc6ncn(C(C)(C)C)c6c5)c4n3)cn2)CC1 [P-349, 7-(3-tert-butylbenzimidazol-5-yl)-2-[2-(4-methylpiperazin-1-yl)pyrimidin-5-yl]-5H-pyrrolo[2,3-b]pyrazine] | 0.0001 to 1 µM | 0.0001 to 1 µM
COc1cc(-c2cnc3[nH]cc(-c4ccc5ncn(C(C)(C)C)c5c4)c3c2)cc(OC)n1 [P-196, 1-tert-butyl-6-[5-(2,6-dimethoxy-4-pyridyl)-1H-pyrrolo[2,3-b]pyridin-3-yl]benzimidazole] | 0.0001 to 1 µM | 0.0001 to 1 µM
O=C(O)Cc1cccc(-c2cnc3[nH]cc(-c4ccc5ncsc5c4)c3n2)c1 [P-164, 2-[3-[7-(1,3-benzothiazol-6-yl)-5H-pyrrolo[2,3-b]pyrazin-2-yl]phenyl]acetic acid] | 0.0001 to 1 µM | 0.0001 to 1 µM
Cc1cc(-c2cnc3[nH]cc(-c4ccc5ncn(C(C)(C)C)c5c4)c3n2)cnc1C#N [P-355, 5-[7-(3-tert-butylbenzimidazol-5-yl)-5H-pyrrolo[2,3-b]pyrazin-2-yl]-3-methyl-pyridine-2-carbonitrile] | 0.0001 to 1 µM | 0.0001 to 1 µM
CN(c1cccc(-c2cnc3[nH]cc(-c4ccc5ncsc5c4)c3n2)c1)S(C)(=O)=O [P-167, N-[3-[7-(1,3-benzothiazol-6-yl)-5H-pyrrolo[2,3-b]pyrazin-2-yl]phenyl]-N-methyl-methanesulfonamide] | 0.0001 to 1 µM | 0.0001 to 1 µM
COc1cc(-c2cnc3[nH]cc(-c4ccc5ncn(C6CCCNC6)c5c4)c3c2)ccn1 (centres unmarked) [P-138, 5-(2-methoxy-4-pyridyl)-3-[3-(3-piperidyl)benzimidazol-5-yl]-1H-pyrrolo[2,3-b]pyridine] | 0.0001 to 1 µM | 0.0001 to 1 µM
COc1cc(-c2cnc3[nH]cc(-c4ccc5ncsc5c4)c3n2)cc(C)n1 [P-173, 6-[2-(2-methoxy-6-methyl-4-pyridyl)-5H-pyrrolo[2,3-b]pyrazin-7-yl]-1,3-benzothiazole] | 0.0001 to 1 µM | 0.0001 to 1 µM
CCS(=O)(=O)Nc1cccc(-c2cnc3[nH]cc(-c4ccc5ncn(C)c5c4)c3n2)c1 [P-154, N-[3-[7-(3-methylbenzimidazol-5-yl)-5H-pyrrolo[2,3-b]pyrazin-2-yl]phenyl]ethanesulfonamide] | 0.0001 to 1 µM | 0.0001 to 1 µM
COc1cc(-c2cnc3[nH]cc(-c4ccc5ncn(C6CCCC6)c5c4)c3n2)ccn1 [P-114, 7-(3-cyclopentylbenzimidazol-5-yl)-2-(2-methoxy-4-pyridyl)-5H-pyrrolo[2,3-b]pyrazine] | 0.0001 to 1 µM | 0.0001 to 1 µM
